Source: the supplement of paper PMC4862054

What was measured:
Details in all cases: incubation time: 72 h
CAL-51 [1] = experiment: normalised viability (% of control), CellTiter-Blue; higher = more viable cells (about 100 = DMSO control)
Protocol: (§1)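 DSRT, CellTiter-Blue viability, 72 h incubation. Signal is normalised to DMSO and benzethonium chloride controls. Value is the normalised response at dose 7.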

DU-4475 [2] = experiment: as above
Protocol: as §1

CAL-85-1 [3] = experiment: as above
Protocol: as §1

MDA-MB-453 [4] = experiment: as above
Protocol: as §1

CAL-148 [5] = experiment: as above
Protocol: as §1

HDQ-P1 [6] = experiment: as above
Protocol: as §1

MDA-MB-231 = experiment: normalised response (% of control), CellTiter-Glo; higher = more viable cells (100 = DMSO, 0 = benzethonium chloride kill control)
How it was run: (§2)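 For each plate, 0.1 % DMSO was set to 100 and a positive kill control to 0. Breast cancer cell lines (20 µl suspension) were seeded into 384-well plates already holding compound at 5 concentrations in 10-fold steps over a 10,000-fold range chosen per compound, and incubated for 72 h. CellTox Green fluorescence at 485/520 nm was read before CellTiter-Glo luminescence, which followed 10 min at room temperature. Each value is the normalised signal at one concentration.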

Hs578T = experiment: as above
How it was run: as §2

HCC1599 = experiment: as above
How it was run: as §2

CAL-120 = experiment: as above
How it was run: as §2

CAL-148 [7] = experiment: as above
How it was run: as §2

MCF-10A = experiment: as above
How it was run: as §2

BT-549 = experiment: as above
How it was run: as §2

CAL-51 [8] = experiment: normalised viability (% of control), CellTiter-Blue; higher = more viable cells (about 100 = DMSO control); remark: listed apart in the source
Protocol: (§3)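 DSRT, CellTiter-Blue viability, 72 h incubation. Signal is normalised to DMSO and benzethonium chloride controls. Value is the normalised response at dose 9.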

DU-4475 [9] = experiment: as above; remark: listed apart in the source
Protocol: as §3

CAL-85-1 [10] = experiment: as above; remark: listed apart in the source
Protocol: as §3

MDA-MB-453 [11] = experiment: as above; remark: listed apart in the source
Protocol: as §3

CAL-148 [12] = experiment: as above; remark: listed apart in the source
Protocol: as §3

HDQ-P1 [13] = experiment: as above; remark: listed apart in the source
Protocol: as §3

SMILES	normalised viability (CAL-51 [1]) [%]	normalised viability (DU-4475 [2]) [%]	normalised viability (CAL-85-1 [3]) [%]	normalised viability (MDA-MB-453 [4]) [%]	normalised viability (CAL-148 [5]) [%]	normalised viability (HDQ-P1 [6]) [%]	normalised response (MDA-MB-231) [%]	normalised response (Hs578T) [%]	normalised response (HCC1599) [%]	normalised response (CAL-120) [%]	normalised response (CAL-148 [7]) [%]	normalised response (MCF-10A) [%]	normalised response (BT-549) [%]	normalised viability (CAL-51 [8]) [%]	normalised viability (DU-4475 [9]) [%]	normalised viability (CAL-85-1 [10]) [%]	normalised viability (MDA-MB-453 [11]) [%]	normalised viability (CAL-148 [12]) [%]	normalised viability (HDQ-P1 [13]) [%]
COc1ccc(S(=O)(=O)Nc2cccnc2Nc2ccc(O)cc2)cc1 [ABT-751] (1000 nM)	39.7	66.1	32.3	25.2	52.5	51.3	63.6	45.6	43.5	60.9	87.2	84.4	48.9	–	–	–	–	–	–
COc1ccc(S(=O)(=O)Nc2cccnc2Nc2ccc(O)cc2)cc1 [ABT-751] (10000 nM)	–	–	–	–	–	–	–	–	–	–	–	–	–	6.42	6.9	23.6	20.6	12.7	32.6
Cc1cc(Nc2nc(N[C@@H](C)c3ncc(F)cn3)ncc2Cl)[nH]n1 [AZD1480] (100 nM)	108	93.2	82.2	105	105	98.6	97.8	101	111	97.3	87.5	93.4	105	–	–	–	–	–	–
Cc1cc(Nc2nc(N[C@@H](C)c3ncc(F)cn3)ncc2Cl)[nH]n1 [AZD1480] (1000 nM)	–	–	–	–	–	–	–	–	–	–	–	–	–	86.3	74.7	88.4	56.6	100	137
CNC(=O)c1ccccc1Sc1ccc2c(/C=C/c3ccccn3)n[nH]c2c1 [Axitinib] (1000 nM)	88.7	109	76.9	60.4	97.5	76.8	111	93.8	82	95.3	103	95	103	–	–	–	–	–	–
CNC(=O)c1ccccc1Sc1ccc2c(/C=C/c3ccccn3)n[nH]c2c1 [Axitinib] (10000 nM)	–	–	–	–	–	–	–	–	–	–	–	–	–	37.3	21.1	67.2	46.2	42.1	67.3
CC(O)(CS(=O)(=O)c1ccc(F)cc1)C(=O)Nc1ccc(C#N)c(C(F)(F)F)c1 (stereo unspecified) [Bicalutamide] (1000 nM)	108	90.1	91.1	102	102	91.4	112	95.6	120	108	102	110	97.6	–	–	–	–	–	–
CC(O)(CS(=O)(=O)c1ccc(F)cc1)C(=O)Nc1ccc(C#N)c(C(F)(F)F)c1 (stereo unspecified) [Bicalutamide] (10000 nM)	–	–	–	–	–	–	–	–	–	–	–	–	–	112	121	102	100	107	128
CCNC(=O)CCC/C=C\C[C@@H]1[C@@H](/C=C/[C@@H](O)CCc2ccccc2)[C@H](O)C[C@@H]1O [Bimatoprost] (550 nM)	118	104	94.2	91.1	95.9	93.3	97.1	93	105	97.1	93.6	102	104	–	–	–	–	–	–
CCNC(=O)CCC/C=C\C[C@@H]1[C@@H](/C=C/[C@@H](O)CCc2ccccc2)[C@H](O)C[C@@H]1O [Bimatoprost] (5500 nM)	–	–	–	–	–	–	–	–	–	–	–	–	–	114	107	92.2	106	92.2	115
COc1cc(Nc2c(C#N)cnc3cc(OCCCN4CCN(C)CC4)c(OC)cc23)c(Cl)cc1Cl [Bosutinib] (1000 nM)	109	109	81.9	80.3	72	89.2	81.6	102	86.8	83.8	101	34.5	95.2	–	–	–	–	–	–
COc1cc(Nc2c(C#N)cnc3cc(OCCCN4CCN(C)CC4)c(OC)cc23)c(Cl)cc1Cl [Bosutinib] (10000 nM)	–	–	–	–	–	–	–	–	–	–	–	–	–	11.1	4.38	12.4	4.44	9.6	4.45
Cn1cc(C2=C(c3cn(C4CCN(Cc5ccccn5)CC4)c4ccccc34)C(=O)NC2=O)c2ccccc21 [Enzastaurin] (1000 nM)	90.4	91.7	83.7	62.8	73	81.2	100	104	95.8	103	104	91.6	95.8	–	–	–	–	–	–
Cn1cc(C2=C(c3cn(C4CCN(Cc5ccccn5)CC4)c4ccccc34)C(=O)NC2=O)c2ccccc21 [Enzastaurin] (10000 nM)	–	–	–	–	–	–	–	–	–	–	–	–	–	89.8	86	88.4	51.9	67.4	78.1
CC(C)(C)NC(=O)[C@H]1CC[C@H]2[C@@H]3CC[C@H]4NC(=O)C=C[C@]4(C)[C@H]3CC[C@]12C [Finasteride] (1000 nM)	109	113	98.4	106	103	118	95.2	96.6	113	106	91.8	104	90.7	–	–	–	–	–	–
